Source: publication PMC8385535 (Frontiers in Pharmacology, 2021)
pKd: −log10 of the molar value.

Target: T1, IGPD (imidazole glycerol phosphate dehydratase) (Staphylococcus xylosus, UniProt A0A5R9B0J7)
T1 construct: gene hisB; recombinant, pET30a-hisB, E. coli host; His tag implied (coupled to Octet NTA sensor)
T1 sequence (A0A5R9B0J7 1-192): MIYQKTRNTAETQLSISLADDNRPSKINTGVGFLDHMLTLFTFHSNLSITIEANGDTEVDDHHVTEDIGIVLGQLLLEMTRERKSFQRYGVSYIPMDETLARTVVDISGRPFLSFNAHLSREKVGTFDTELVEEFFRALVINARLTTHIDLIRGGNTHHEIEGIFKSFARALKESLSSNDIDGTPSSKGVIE
Assay: bio-layer interferometry (Octet, IGPD on NTA tip)
Format: binding

C[C@@H]1O[C@@H](OC[C@H]2O[C@@H](Oc3c(-c4ccc(O)c(O)c4)oc4cc(O)cc(O)c4c3=O)[C@H](O)[C@@H](O)[C@@H]2O)[C@H](O)[C@H](O)[C@H]1O [rutin]
pKd: 3.00
